Source: ChEMBL document CHEMBL5506065, “Discovery of Novel Non-Nucleoside Inhibitors Interacting with Dizinc Ions of CD73” (J Med Chem, 2024)
Activity calls are given as the source filed them. The rule behind the calls is not given here.

Legend:
[1] = Inhibition of CD73 in human MDA-MB-231 cells using AMP substrate measured after 60 mins by cell based - malachite green phosphate assay; details: MDA-MB-231, 1 h
[2] = Inhibition of recombinant human CD73 expressed in Escherichia coli using AMP as substrate measured after 60 mins by malachite green method
[3] = Half life in male Sprague-Dawley rat; assay type: ADME; details: in vivo
[4] = Toxicity in C57/BL6 mouse subcutaneously injected with mouse E.G7-OVA T cells assessed as change in body weight at 1 mg/kg, iv qd treated for 16 days; assay type: organism-based, T-cell; details: in vivo, 384 h, time 16 day
E.G7-OVA [5] = experiment: (§1) In vivo antitumor immunity against mouse E.G7-OVA T cell lymphoma subcutaneously injected in syngeneic C57/BL6 mouse model assessed as tumor-infiltrating lymphocyte by measuring increase in CD8 positive/Treg ratio at 1 mg/kg, iv qd (tail vein) measured after 16 days by flow cytometry; assay type: functional, organism-based; details: time 16.0 day
E.G7-OVA [6] = experiment: In vivo antitumor activity against mouse E.G7-OVA T cell lymphoma subcutaneously injected in syngeneic C57/BL6 mouse model assessed as tumor growth inhibition in presence of KG035 at 50 mg/kg, ip measured after 14 days; assay type: functional; details: 336 h, time 14 day, read-out: TGI
[7] = AUC (0 to t) in male Sprague-Dawley rat at 1 mg/kg, iv; assay type: ADME, organism-based; details: in vivo
E.G7-OVA [8] = experiment: In vivo antitumor activity against mouse E.G7-OVA T cell lymphoma subcutaneously injected in syngeneic C57/BL6 mouse model assessed as tumor growth inhibition at 50 mg/kg, ip measured after 14 days; assay type: functional; details: 336 h, time 14 day, read-out: TGI
[9] = Clearance in male Sprague-Dawley rat at 10 mg/kg, po; assay type: ADME, organism-based; details: in vivo
E.G7-OVA [10] = experiment: as §1, with “ratio in presence of doxorubicin” for “ratio”; assay type: functional, organism-based; details: time 16.0 day
E.G7-OVA [11] = experiment: In vivo antitumor activity against mouse E.G7-OVA T cell lymphoma subcutaneously injected in syngeneic C57/BL6 mouse model assessed as tumor growth inhibition at 1 mg/kg, iv qd (tail vein) measured after 16 days; assay type: functional; details: 384 h, time 16 day, read-out: TGI
[12] = AUC (0 to t) in male Sprague-Dawley rat at 10 mg/kg, po; assay type: ADME, organism-based; details: in vivo
E.G7-OVA [13] = experiment: In vivo antitumor activity against mouse E.G7-OVA T cell lymphoma subcutaneously injected in syngeneic C57/BL6 mouse model assessed as tumor growth inhibition in presence of doxorubicin at 1 mg/kg, iv qd (tail vein) measured after 16 days; assay type: functional; details: 384 h, time 16 day, read-out: TGI
E.G7-OVA [14] = experiment: as §1, with “positive T cell in total CD45 positive cells in presence of doxorubicin” for “positive/Treg ratio”; assay type: functional, organism-based; details: time 16.0 day
[15] = Tmax in male Sprague-Dawley rat at 1 mg/kg, iv; assay type: ADME, organism-based; details: in vivo
[16] = Clearance in male Sprague-Dawley rat at 1 mg/kg, iv; assay type: ADME, organism-based; details: in vivo
E.G7-OVA [17] = experiment: as §1, with “positive T cell in total CD45 positive cells” for “positive/Treg ratio”; assay type: functional, organism-based; details: time 16.0 day
[18] = Half life in male Sprague-Dawley rat at 1 mg/kg, iv; assay type: ADME, organism-based; details: in vivo
[19] = Cmax in male Sprague-Dawley rat at 1 mg/kg, iv; assay type: ADME, organism-based; details: in vivo
[20] = Cmax in male Sprague-Dawley rat at 10 mg/kg, po; assay type: ADME, organism-based; details: in vivo
[21] = Half life in male Sprague-Dawley rat at 10 mg/kg, po; assay type: ADME, organism-based; details: in vivo
[22] = Tmax in male Sprague-Dawley rat at 10 mg/kg, po; assay type: ADME, organism-based; details: in vivo
E.G7-OVA [23] = experiment: In vivo antitumor activity against mouse E.G7-OVA T cell lymphoma subcutaneously injected in syngeneic C57/BL6 mouse model assessed as tumor growth inhibition at 2.5 mg/kg, iv qw (tail vein) measured after 16 days; assay type: functional; details: 384 h, time 16 day, read-out: TGI

Structure (SMILES) | IC50 [1] [nM] | IC50 [2] [nM] | also measured
Cc1noc(C)c1CC(OCc1n[nH]c2cc(-n3nnc4c(F)cc(Br)cc43)ccc12)(C(=O)O)C(=O)O | 60 | 370 | 
O=C(O)C(Cc1ccccc1)(OCc1n[nH]c2cc(-n3nnc4c(F)cc(NC5CCCC5)cc43)ccc12)C(=O)O | 560 | 490 | 
O=C(O)C(Cc1ccc(-c2ccccc2)cc1)(OCc1n[nH]c2cc(-n3nnc4c(F)cc(Br)cc43)ccc12)C(=O)O | 1620 | 780 | 
C=Cc1cc(F)c2nnn(-c3ccc4c(COC(Cc5ccccc5)(C(=O)O)C(=O)O)n[nH]c4c3)c2c1 | 950 | 900 | 
Cc1cccc(C)c1CC(OCc1n[nH]c2cc(-n3nnc4c(F)cc(Br)cc43)ccc12)(C(=O)O)C(=O)O | 1030 | 590 | 
CC(=O)Nc1nc(CC(OCc2n[nH]c3cc(-n4nnc5c(F)cc(Br)cc54)ccc23)(C(=O)O)C(=O)O)cs1 | 630 | 530 | 
O=C(O)C(Cc1cn[nH]c1)(OCc1n[nH]c2cc(-n3nnc4c(F)cc(Br)cc43)ccc12)C(=O)O | 180 | 190 | 
O=C(O)C(Cc1ccccc1)(OCc1n[nH]c2cc(-n3nnc4c(F)cc(NCc5ccccc5C5CC5)cc43)ccc12)C(=O)O | 620 | 700 | 
Fc1cc(Br)cc2c1nnn2-c1ccc2cn[nH]c2c1 | > 20000 | > 20000 | 
Nc1cc(F)c2nnn(-c3ccc4c(COC(Cc5ccccc5)(C(=O)O)C(=O)O)n[nH]c4c3)c2c1 | 280 | 200 | 
CCOC(=O)C(Cc1ccccc1)(OCc1n[nH]c2cc(-n3nnc4c(F)cc(Br)cc43)ccc12)C(=O)O (stereo not given) | 7100 | > 20000 | 
O=C(O)C(Cc1ccc(C(F)(F)F)o1)(OCc1n[nH]c2cc(-n3nnc4c(F)cc(Br)cc43)ccc12)C(=O)O | 230 | 890 | 
O=C(O)C(Cc1ccccc1)(OCc1n[nH]c2cc(-n3nnc4c(F)cc(Cl)cc43)ccc12)C(=O)O | 90 | 130 | half-life [3]: 126 min
O=C(O)C(Cc1ccccc1)(OCc1n[nH]c2cc(-n3nnc4c(F)cc(Br)cc43)ccc12)C(=O)O | 40 | 60 | Activity [4]: Non-Toxic; Activity (E.G7-OVA [5]): Active; inhibition in vivo at 50 mg/kg (E.G7-OVA [6]): 47.5%; AUC(0-t) [7]: 7220 ng·h/mL; inhibition in vivo at 50 mg/kg (E.G7-OVA [8]): 41.1%; CL/F [9]: 1210 mL/min/kg; Activity (E.G7-OVA [10]): Active; inhibition in vivo at 1 mg/kg (E.G7-OVA [11]): 12.5%; AUC(0-t) [12]: 144 ng·h/mL; inhibition in vivo at 1 mg/kg (E.G7-OVA [13]): 44.2%; Activity (E.G7-OVA [14]): Active; Tmax [15]: 4.8 min; clearance [16]: 2.41 mL/min/kg; Activity (E.G7-OVA [17]): Active; half-life [18]: 60 min; Cmax [19]: 14500 ng/mL; Cmax [20]: 124 ng/mL; half-life [21]: 72 min; Tmax [22]: 30 min
O=C(O)C(Cc1ccccc1)(OCc1n[nH]c2cc(-n3nnc4c(F)cc(C5CC5)cc43)ccc12)C(=O)O | 1000 | 1430 | 
Cc1nnc(-c2c[nH]c(=O)[nH]c2=O)cc1[C@H]1C[C@@H]1C(C)C [LY-3475070] | 40 | 170 | 

Structure (SMILES) | IC50 [1] [nM] | IC50 [2] [nM] | also measured
O=C(O)C(Cc1ccc(F)cc1)(OCc1n[nH]c2cc(-n3nnc4c(F)cc(Br)cc43)ccc12)C(=O)O | 400 | 540 | 
O=C(O)C(Cc1ccc(C(F)(F)F)cc1)(OCc1n[nH]c2cc(-n3nnc4c(F)cc(Br)cc43)ccc12)C(=O)O | 320 | 2070 | 
O=C(O)C(Cc1ccccc1)(OCc1n[nH]c2cc(-n3nnc4c(F)cc(NCc5ccccc5)cc43)ccc12)C(=O)O | 550 | 330 | 
C[C@H](Nc1cc(Cl)nc2c1cnn2[C@@H]1O[C@H](COP(=O)(O)CP(=O)(O)O)[C@@H](O)[C@H]1O)c1ccccc1F [QUEMLICLUSTAT] | 1 | 1 | 
O=C(O)C(Cc1ccccc1)(OCc1n[nH]c2cc(-n3nnc4c(F)cc(C5CCC5)cc43)ccc12)C(=O)O | 620 | 1420 | 
O=C(O)C(OCc1n[nH]c2cc(-n3nnc4c(F)cc(Br)cc43)ccc12)C(=O)O | 3400 | 8700 | 
Cn1cc(CC(OCc2n[nH]c3cc(-n4nnc5c(F)cc(Br)cc54)ccc23)(C(=O)O)C(=O)O)c(C(F)(F)F)n1 | 610 | 1030 | 
[2H]C([2H])(OC(Cc1ccccc1)(C(=O)O)C(=O)O)c1n[nH]c2cc(-n3nnc4c(F)cc(Cl)cc43)ccc12 | 100 |  | AUC(0-t) [7]: 8740 ng·h/mL; CL/F [9]: 1820 mL/min/kg; AUC(0-t) [12]: 99.5 ng·h/mL; Tmax [15]: 4.8 min; clearance [16]: 1.93 mL/min/kg; half-life [18]: 150 min; Cmax [19]: 19100 ng/mL; Cmax [20]: 68.6 ng/mL; half-life [21]: 126 min; Tmax [22]: 18 min
COc1cccc2c1C(=O)c1c(O)c3c(c(O)c1C2=O)C[C@@](O)(C(=O)CO)C[C@@H]3O[C@H]1C[C@H](N)[C@H](O)[C@H](C)O1 [DOXORUBICIN] |  |  | inhibition in vivo at 2.5 mg/kg (E.G7-OVA [23]): 34.7%
Cc1ccccc1CC(OCc1n[nH]c2cc(-n3nnc4c(F)cc(Br)cc43)ccc12)(C(=O)O)C(=O)O | 340 | 35000 | 
CC(C)(C#N)c1ccc(CC(OCc2n[nH]c3cc(-n4nnc5c(F)cc(Br)cc54)ccc23)(C(=O)O)C(=O)O)cc1 | 380 | 690 | 
O=C(O)C(Cc1ccccc1F)(OCc1n[nH]c2cc(-n3nnc4c(F)cc(Br)cc43)ccc12)C(=O)O | 130 | 200 | 
CC(C)OCc1cc(F)c2nnn(-c3ccc4c(COC(Cc5ccccc5)(C(=O)O)C(=O)O)n[nH]c4c3)c2c1 | 1770 | 1550 | 
Cc1cc(F)c2nnn(-c3ccc4c(COC(Cc5ccccc5)(C(=O)O)C(=O)O)n[nH]c4c3)c2c1 | 1520 | 1100 | 
O=C(O)C(Cc1ccccc1)(OCc1n[nH]c2cc(-n3nnc4c(F)cc([C@@H](O)CO)cc43)ccc12)C(=O)O | 1100 | 1310 | 
